# Columns and labels:
# Gdx-Eco = Gdx-Eco (Escherichia coli, UniProt P69937); design: method as in Kermani et al., 2018; Thomas et al., 2021; settings: ref Kermani et al., 2018, Thomas et al., 2021; cited from earlier work
# Gdx-Clo A70C/S104C = test: Tryptophan fluorescence binding to crosslinked variant; design: species or system Clostridales oral taxon 876; settings: A70C/S104C under oxidizing conditions, read-out: Kd, fit to a single-site binding model
# Method: Fluorescence emission spectra (λex = 280 nm, […]) were collected for 1 µM purified protein in assay buffer containing 200 mM NaCl, 10 mM HEPES, 10 mM bicine, 10 mM NaPO4, and 5 mM DM, with pH adjusted from 6.5 to 9.0. Substrate was added from a stock solution prepared in assay buffer. For Gdm^+ titrations, the change in fluorescence, F, as a function of substrate fit to a single site binding isotherm, ∆F=(Fmax[S]/Kd+[S]). (3)
# For all SSM electrophysiology experiments, the shapes of the substrate-induced currents are characteristic of transport, rather than electrogenic presteady binding events. However, we sought to confirm this interpretation for at least one transporter/substrate pair. Using the structure of Gdx-Clo ([Kermani et al., 2020]), we introduced a pair of cysteines, A70C and S104C, that are within the crosslinking distance (∼6 Å) on the open side of the transporter, but that increase in distance when the transporter changes conformation. We expected that the formation of a crosslink would lock the transporter in one open conformation, impairing transport, with little effect on substrate binding (Fig. 2 C). […] Substrate exchange is restored in reducing conditions. […]
# Chain of Gdx-Eco (P69937 whole entry): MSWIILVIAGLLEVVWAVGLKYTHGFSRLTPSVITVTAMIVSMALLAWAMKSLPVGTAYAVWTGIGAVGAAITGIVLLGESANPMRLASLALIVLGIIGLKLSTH
structure (smiles),measurement,setting,value
"N=C(N)N [Gdm^+, guanidinium]",Proton coupling stoichiometry,Gdx-Eco,2 H^+: 1 Gdm^+
same,Kd,Gdx-Clo A70C/S104C,560 µM

# Reference: paper PMC10829512, “Transport of metformin metabolites by guanidinium exporters of the small multidrug resistance family” (The Journal of General Physiology, 2024)
